Data set [1] relates to carrageenan-induced rat paw edema. The data set is described as follows: carrageenan-induced rat paw edema test. To be noted: rats, 10 mg/kg intraperitoneally, 4 h after carrageenan; for inhibition in vivo at 10 mg/kg / change in vivo at 10 mg/kg: Rattus norvegicus, ip; for inhibition in vivo at 10 mg/kg: 4 h, read-out: %Inhibition of Paw edema from control group (edema reduction); for change in vivo at 10 mg/kg / Mean increase in edema weight ± SEM: N = 6; for change in vivo at 10 mg/kg: read-out: Mean % increase in edema weight ± SEM; for % Activity relative to indomethacine: indomethacin = 100. Further details: Mean increase in edema weight ± SEM: unit not given here. The class given is in vivo. As to the method:
The in vivo anti-inflammatory effects of the newly synthesized pyrazolopyrimidine derivatives were assessed by utilizing the functional model of carrageenan-induced rat paw edema using indomethacin as the reference drug. Mean changes and the percent increase in paw edema weight of animals pretreated with the tested compounds after 4 h from the induction of inflammation were measured, together with the percent inhibition of induced rat paw edema by the tested compounds. The anti-inflammatory activity (relative potency) of the tested compounds relative to that of indomethacin was also calculated (Table 1) (Fig. 2).
The in vivo carrageenan-induced rat paw edema model of inflammation was used to evaluate the anti-inflammatory properties of the newly synthesized compounds according to the previously reported Winter et al. method.
Adult male albino rats weighing 100–120 g (obtained from the animal house of the department of Physiology, Faculty of Medicine, Alexandria University) were used throughout the work. Animals were randomly divided into groups of six rats each. They were kept in an animal house under standard conditions of light and temperature with free access to food and water ad libitum and allowed to be accustomed to their environment for two days before testing.
Indomethacin, used as a reference standard (Khahira for Pharmaceutical and Chemical Industry, Cairo, Egypt), and the test compounds were dissolved in DMSO and were injected intraperitoneally at a dose level of 10 mg/kg body weight. Control animals, on the other hand, were intraperitoneally injected with appropriate volume of DMSO only. After one hour of the above treatment, an inflammatory edema in the right hind paw of all animals was induced by subcutaneous injection of 0.05 ml of freshly prepared solution of 1% carrageenan (λ-Carrageenan Sigma–Aldrich Corp. St. Louis, MO, USA) in sterile normal saline (0.9%), into the subplantar tissue of the paw. An equal volume of saline was injected to the left hind paw and served as internal control for the degree of inflammation in the right hind paw.
Four hours after carrageenan injection, animals were decapitated and both the right and left hind paws were excised at a standard point and weighed. The difference in weight from edema between right and left paws was taken as a measure of the degree of inflammation for each animal. The mean increase in weight of the carrageenan-injected paw over the other paw in each group was measured and the percent increase of edema was calculated. The anti-inflammatory efficacy of the tested compounds was assessed by comparing the change in paw weight in the treated animals with that in control animals (treated with DMSO only) and expressed as a percent inhibition of the edema (percent protection against inflammation), calculated according to the following equation: % Inhibition of edema=(1-Wt/Wc)×100 where Wt is the mean increase in paw weight in rats treated with the test compounds and Wc is the mean increase in paw weight in the control group. The anti-inflammatory activity of the test compounds relative to that of indomethacin was also determined (Table 2).
In the anti-inflammatory study, data obtained were expressed as the mean ± standard error (SEM). Statistical significance was determined by comparing the values of the test compounds and the standard with those obtained from the control group of animals using One-way ANOVA with Dunnett’s post-test using the GraphPad Prism version 3.00 for Windows (GraphPad Software, San Diego California USA, www.graphpad.com). The difference in results was considered significant if P < 0.001.
In general terms: The carrageenan paw model is a standard test of acute inflammation.

For data set [2], the system named is gastric mucosa of rats. The data set is described as follows: gastric ulcerogenic effect (Meshali's method, ulcer index by Robert's method). The class given is in vivo, rat. Set-up: key to Ulcer index: ulcer index = %incidence/10 + avg no. of ulcers + avg severity (0–4). The procedure:
The ulcer index was calculated according to Robert’s method.
Adult male albino rats weighing between 100 and 120 g were used. Animals were divided into groups of five animals each. Rats were fasted 20 h before drug administration. Water was given ad libitum. The control group received the vehicle (1% gum acacia) orally. Other groups received indomethacin or test compounds orally in a dose of 10 mg/kg body weight suspended in 1% gum acacia. Rats were fasted for 2 h, allowed to feed for 2 h, then fasted for another 20 h. Rats were given another two doses on the second and third days. On the fourth day, rats were sacrificed by diethyl ether; the stomach of each rat was removed, opened along the greater curvature, and rinsed with cold 0.9% saline. The stomach was stretched, by pins, on a corkboard and inspected with a 3x magnifying lens for any evidence of mucosal damage. The ulcer index was calculated according to Robert’s method. The number of mucosal damage (red spots) was counted and their severity (ulcerogenic severity) was graded from 0 to 4 according to the following score assignment:
The following figures were calculated: • –– % Incidence/10 = [number of rats showing ulcer of any grade divided by total number of rats in the group × 100]/10. • –– Average number of ulcers: number of ulcers in the group/total number of rats in the group. • –– Average severity: Σ [each ulcer multiplied by its score of severity]/number of ulcers in the group. • Ulcer index = the sum of the 3 figures. • Results are tabulated in Table 2.

On to `Cc1nc2c(cnn2-c2ccccc2)c(=O)n1N` [Compound 5, 5-Amino-6-methyl-1-phenyl-1,5-dihydro-4H-pyrazolo[3,4-d]pyrimidin-4-one], for which, in data set [1], the inhibition in vivo at 10 mg/kg came out at 33.1%, the change in vivo at 10 mg/kg stood at 19.8 ± 1.6%, the “Mean increase in edema weight ± SEM” value was 1.05 ± 0.089 and the “% Activity relative to indomethacine” value is on record as 48.60%.

For orientation: melting point means the temperature, or range, at which the solid turns liquid. `Cc1nc2c(cnn2-c2ccccc2)c(=O)n1N=Cc1ccccc1` [Compound 7a, 5-(Benzylideneamino)-6-methyl-1-phenyl-1,5-dihydro-4H-pyrazolo[3,4-d]pyrimidin-4-one] returned a melting point of 184 to 186 °C. Besides, in data set [1], the inhibition in vivo at 10 mg/kg amounted to 34.4%, the change in vivo at 10 mg/kg came to 15.3 ± 0.515%, the “Mean increase in edema weight ± SEM” value amounted to 1.03 ± 0.033 and the “% Activity relative to indomethacine” value is reported as 50.46%.

`Cc1nc2c(cnn2-c2ccccc2)c(=O)n1N=Cc1ccc(Cl)cc1` [Compound 7b, 5-[(4-Chlorobenzylidene)amino]-6-methyl-1-phenyl-1,5-dihydro-4H-pyrazolo[3,4-d]-pyrimidin-4-one] displayed a melting point of 195 to 196 °C. Besides, in data set [1], the inhibition in vivo at 10 mg/kg was 36.3%, the change in vivo at 10 mg/kg amounted to 15.2 ± 1.4%, the “Mean increase in edema weight ± SEM” value was 1.00 ± 0.063 and the “% Activity relative to indomethacine” value amounted to 53.28%.

As for `Cc1nc2c(cnn2-c2ccccc2)c(=O)n1N1C(=O)CSC1c1ccccc1` (stereo not shown) [Compound 8a, 6-Methyl-5-(4-oxo-2-phenyl-1,3-thiazolidin-3-yl)-1-phenyl-1,5-dihydro-4H-pyrazolo[3,4-d]-pyrimidin-4-one], the melting point fell in the range of 179 to 181 °C. Further, in data set [1], the inhibition in vivo at 10 mg/kg came out at 37.6%, the change in vivo at 10 mg/kg was 12.5 ± 0.376%, the “Mean increase in edema weight ± SEM” value turned out to be 0.98 ± 0.017 and the “% Activity relative to indomethacine” value is given as 55.14%.

`Cc1nc2c(cnn2-c2ccccc2)c(=O)n1N1C(=O)CSC1c1ccc(Cl)cc1` (stereo not shown) [Compound 8b, 5-[2-(4-Chlorophenyl)-4-oxo-1,3-thiazolidin-3-yl]-6-methyl-1-phenyl-1,5-dihydro-4H-pyrazolo[3,4-d]pyrimidin-4-one] returned a melting point of 191 to 195 °C. Besides, in data set [1], the inhibition in vivo at 10 mg/kg was 40.8%, the change in vivo at 10 mg/kg amounted to 13 ± 0.702%, the “Mean increase in edema weight ± SEM” value worked out at 0.93 ± 0.042 and the “% Activity relative to indomethacine” value was determined as 59.81%.

In turn, `Cc1nc2c(cnn2-c2ccccc2)c(=O)n1NC(=S)Nc1ccccc1` [Compound 9a, 1-(6-Methyl-4-oxo-1-phenyl-1,4-dihydro-5H-pyrazolo[3,4-d]pyrimidin-5-yl)-3-phenylthiourea] had a melting point of 145 to 150 °C. Further, in data set [1], the inhibition in vivo at 10 mg/kg was 42.7%, the change in vivo at 10 mg/kg was 12.7 ± 0.748%, the “Mean increase in edema weight ± SEM” value is reported as 0.90 ± 0.058 and the “% Activity relative to indomethacine” value was 62.63%.

As to `Cc1nc2c(cnn2-c2ccccc2)c(=O)n1NC(=S)Nc1ccc(Cl)cc1` [Compound 9b, 1-(4-Chlorophenyl)-3-(6-methyl-4-oxo-1-phenyl-1,4-dihydro-5H-pyrazolo[3,4-d]pyrimidin-5-yl)thiourea], the melting point lay in the range of 157 to 160 °C. For the same molecule, in data set [1], the inhibition in vivo at 10 mg/kg was 47.8%, the change in vivo at 10 mg/kg was determined as 15.7 ± 1.03%, the “Mean increase in edema weight ± SEM” value is reported as 0.82 ± 0.048 and the “% Activity relative to indomethacine” value is reported as 70.10%.

With `Cc1nc2c(cnn2-c2ccccc2)c(=O)n1N=C1SCC(=O)N1c1ccccc1` [Compound 10a, 6-Methyl-5-[(4-oxo-3-phenyl-1,3-thiazolidin-2-ylidene)amino]-1-phenyl-1,5-dihydro-4H-pyrazolo[3,4-d]pyrimidin-4-one], the melting point lay in the range of 264 to 267 °C. Further, in data set [1], the inhibition in vivo at 10 mg/kg amounted to 52.2%, the change in vivo at 10 mg/kg was 9.5 ± 0.326%, the “Mean increase in edema weight ± SEM” value came to 0.75 ± 0.022 and the “% Activity relative to indomethacine” value was 76.64%.

Consider `Cc1nc2c(cnn2-c2ccccc2)c(=O)n1N1C(=O)CC(=O)N(c2ccccc2)C1=S` [Compound 12a, 1-(6-Methyl-4-oxo-1-phenyl-1,4-dihydro-5H-pyrazolo[3,4-d]pyrimidin-5-yl)-3-phenyl-2-thioxodihydropyrimidine-4,6(1H,5H)-dione], for which, in data set [1], the inhibition in vivo at 10 mg/kg was 35%, the change in vivo at 10 mg/kg was 13.6 ± 0.795% and the “Mean increase in edema weight ± SEM” value amounted to 1.02 ± 0.060.

`Cc1nc2c(cnn2-c2ccccc2)c(=O)n1N1C(=O)CC(=O)N(c2ccc(Cl)cc2)C1=S` [Compound 12b, 1-(4-Chlorophenyl)-3-(6-methyl-4-oxo-1-phenyl-1,4-dihydro-5H-pyrazolo[3,4-d]pyrimidin-5-yl)-2-thioxodihydropyrimidine-4,6(1H,5H)-dione] came in with a melting point of 198 to 201 °C. Moreover, in data set [1], the inhibition in vivo at 10 mg/kg was 45.9%, the change in vivo at 10 mg/kg worked out at 19.3 ± 0.905%, the “Mean increase in edema weight ± SEM” value was found to be 0.85 ± 0.043 and the “% Activity relative to indomethacine” value came out at 67.29%.

Consider `Nn1c(C=O)nc2c(cnn2-c2ccccc2)c1=O` [Compound 13, 5-Amino-4-oxo-1-phenyl-4,5-dihydro-1H-pyrazolo[3,4-d]pyrimidine-6-carbaldehyde], for which the melting point fell in the range of 145 to 146 °C. Moreover, in data set [1], the inhibition in vivo at 10 mg/kg was 39.5%, the change in vivo at 10 mg/kg came out at 15.1 ± 1.07%, the “Mean increase in edema weight ± SEM” value stood at 0.95 ± 0.043 and the “% Activity relative to indomethacine” value was 57.95%.

In the case of `CCOC(=O)c1cc2nc3c(cnn3-c3ccccc3)c(=O)n2nc1N` [Compound 14, Ethyl 7-amino-4-oxo-1-phenyl-1,4-dihydropyrazolo[3′,4′:4,5]pyrimido[1,2-b]-pyridazine-8-carboxylate], the melting point lay in the range of 155 to 156 °C. Besides, in data set [1], the inhibition in vivo at 10 mg/kg came out at 44.6%, the change in vivo at 10 mg/kg stood at 11.1 ± 1.14%, the “Mean increase in edema weight ± SEM” value was found to be 0.87 ± 0.076 and the “% Activity relative to indomethacine” value came to 65.43%.

In the case of `COc1ccc2c(c1)c(CC(=O)O)c(C)n2C(=O)c1ccc(Cl)cc1` [Indomethacin, reference compound], in data set [2] (oral 10 mg/kg), the “% ulceration in the population of test animals” value is 100%. Also, the “Average No. of ulcer” value in data set [2] (oral 10 mg/kg on three days) is reported as 4.4. Moreover, the “% Incidence/10” value in data set [2] (oral 10 mg/kg on three days, 5 animals per group) turned out to be 10. Further, the “% Ulcerogenicity relative to indomethacin” value in data set [2] (oral 10 mg/kg on three days, indomethacin = 100) was 100.00%. Moreover, the Average severity in data set [2] (oral 10 mg/kg on three days, score 0 to 4) amounted to 2.86. Besides, in data set [2] (oral 10 mg/kg on three days, sum of the 3 figures), the Ulcer index is listed as 17.26. Also, in data set [1], the inhibition in vivo at 10 mg/kg was 68.2%, the change in vivo at 10 mg/kg was found to be 6.37 ± 0.366%, the “Mean increase in edema weight ± SEM” value came out at 0.50 ± 0.026 and the “% Activity relative to indomethacine” value is listed as 100.0%.
